Experimental data from US6313110A, “Substituted 2H-1,3-diazapin-2-one useful as an HIV protease inhibitor” (priority 2000, dated 2001).
Read-outs that look alike come from different tables or passages of the source.

Test system: HIV-1 (RF) in MT-2 cells
Experiment: HIV RNA assay: antiviral potency in HIV-1 (RF) infected MT-2 cells (reduction of HIV RNA level)
Type: cell-based
Experimental: Plasmid pDAB 72 containing both gag and pol sequences of BH10 (bp 113-1816) cloned into PTZ 19R was prepared according to Erickson-Viitanen et al. AIDS Research and Human Retroviruses 1989, 5, 577. The plasmid was linearized with Bam HI prior to the generation of in vitro RNA transcripts using the Riboprobe Gemini system II kit (Promega) with T7 RNA polymerase. Synthesized RNA was purified by treatment with RNase free DNAse (Promega), phenol-chloroform extraction, and ethanol precipitation. RNA transcripts were dissolved in water, and stored at -70° C. The concentration of RNA was determined from the A260.
Biotinylated capture probes were purified by HPLC after synthesis on an Applied Biosystems (Foster City, Calif.) DNA synthesizer by addition of biotin to the 5' terminal end of the oligonucleotide, using the biotin-phosphoramidite reagent of Cocuzza, Tet. Lett. 1989, 30, 6287. […]
MT-2 and MT-4 cells were maintained in RPMI 1640 supplemented with 5% fetal calf serum (FCS) for MT-2 cells or 10% FCS for MT-4 cells, 2 mM L-glutamine and 50 μg/mL gentamycin, all from Gibco. […] Infectious titers of HIV-1(RF) stocks were 1-3×10^7 PFU (plaque forming units)/mL as measured by plaque assay on MT-2 cells (see below). […]

IC90 (Human immunodeficiency virus 1, MT2, 72 h, 3 days culture at 37° C., read-out: IC90 (concentration of compound required to reduce the HIV RNA level by 90%)) [nM]	IC90 (Human immunodeficiency virus 1, MT2, ddC reference, dilutions of virus selected to give this IC90, read-out: IC90 (concentration of compound required to reduce the HIV RNA level by 90%)) [µg/mL]	SMILES
< 50	–	Nc1cccc(CN2C(=O)N(Cc3ccc4[nH]ncc4c3)[C@H](Cc3ccccc3)[C@H](O)[C@@H](O)[C@H]2Cc2ccccc2)c1 [Example 1, (4R,5S,6S,7R)-hexahydro-1-[(indazol-5-yl)methyl]-5,6-dihydroxy-4,7-bis[phenylmethyl]-3-(3-aminophenyl)methyl-2H-1,3-diazapin-2-one]
–	0.2	Nc1ccn([C@H]2CC[C@@H](CO)O2)c(=O)n1 [ddC, dideoxycytidine]
